# Biological target: ROCK2 (Homo sapiens, UniProt O75116)
# Experiment: ROCK assay: phosphorylation of FITC peptide substrate, LABCHIP 3000 mobility shift
# Type: biochemical
# Details: 5 μM ATP, 1.5 μM peptide substrate; read-out: ROCK2 Activity (ROCK IC50 range)
# Description: The effectiveness of compounds of the present invention as ROCK inhibitors can be determined in a 30 μL assay containing 20 mM HEPES, pH 7.5, 20 mM MgCl2, 0.015% Brij-35, 4 mM DTT, 5 μM ATP and 1.5 μM peptide substrate (FITC-AHA-AKRRRLSSLRA-OH). Compounds were dissolved in DMSO so that the final concentration of DMSO was <2%, and the reaction was initiated with Rho kinase variants. After incubation, the reaction was terminated by the addition of EDTA and the phosphorylated and non-phosphorylated peptides separated using a LABCHIP® 3000 Reader (Caliper Life Sciences). […] Compounds were tested in dose-response format, and the inhibition of kinase activity was calculated at each concentration of compound. The inhibition data were fit using a curve-fitting program to determine the IC50; i.e., the concentration of compound required to inhibit 50% of kinase activity.
# Representative Examples were tested in the ROCK assay described above and found having ROCK inhibitory activity.
# ROCK2, sequence (O75116 whole entry, species assumed): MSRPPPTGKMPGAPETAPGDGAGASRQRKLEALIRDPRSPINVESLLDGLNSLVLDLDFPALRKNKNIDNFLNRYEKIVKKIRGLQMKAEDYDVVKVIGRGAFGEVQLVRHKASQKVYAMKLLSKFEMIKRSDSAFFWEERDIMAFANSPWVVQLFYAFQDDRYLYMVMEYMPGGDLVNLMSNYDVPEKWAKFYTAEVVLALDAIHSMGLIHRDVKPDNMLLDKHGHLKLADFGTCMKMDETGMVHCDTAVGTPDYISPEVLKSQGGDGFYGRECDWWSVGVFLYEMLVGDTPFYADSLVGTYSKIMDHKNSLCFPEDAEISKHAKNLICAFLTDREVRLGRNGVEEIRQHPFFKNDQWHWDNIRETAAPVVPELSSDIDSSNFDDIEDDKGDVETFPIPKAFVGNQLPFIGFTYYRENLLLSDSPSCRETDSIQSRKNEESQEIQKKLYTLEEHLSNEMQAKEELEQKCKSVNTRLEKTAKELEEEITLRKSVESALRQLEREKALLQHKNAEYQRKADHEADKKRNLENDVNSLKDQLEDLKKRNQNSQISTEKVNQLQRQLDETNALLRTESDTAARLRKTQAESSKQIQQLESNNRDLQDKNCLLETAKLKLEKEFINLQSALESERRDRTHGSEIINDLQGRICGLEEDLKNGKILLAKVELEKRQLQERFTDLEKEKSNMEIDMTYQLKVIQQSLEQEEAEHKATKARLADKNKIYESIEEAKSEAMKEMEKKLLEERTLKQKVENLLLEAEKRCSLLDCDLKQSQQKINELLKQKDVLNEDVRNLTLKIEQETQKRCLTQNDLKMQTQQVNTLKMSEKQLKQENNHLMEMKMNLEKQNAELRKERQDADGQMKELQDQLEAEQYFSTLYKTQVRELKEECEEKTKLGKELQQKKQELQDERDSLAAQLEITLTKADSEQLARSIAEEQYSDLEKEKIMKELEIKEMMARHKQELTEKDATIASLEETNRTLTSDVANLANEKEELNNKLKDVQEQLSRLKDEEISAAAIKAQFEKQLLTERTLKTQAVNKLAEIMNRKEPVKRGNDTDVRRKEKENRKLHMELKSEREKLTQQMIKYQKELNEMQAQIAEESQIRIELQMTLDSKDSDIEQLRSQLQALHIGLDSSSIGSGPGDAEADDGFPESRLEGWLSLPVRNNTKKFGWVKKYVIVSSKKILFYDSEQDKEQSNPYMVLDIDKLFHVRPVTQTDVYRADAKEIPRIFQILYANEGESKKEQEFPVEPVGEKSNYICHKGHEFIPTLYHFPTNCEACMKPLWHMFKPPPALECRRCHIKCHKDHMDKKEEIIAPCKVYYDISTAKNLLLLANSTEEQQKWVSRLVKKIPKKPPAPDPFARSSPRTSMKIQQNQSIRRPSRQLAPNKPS
row,SMILES,IC50
1,"Cn1nc(C(=O)N[C@H]2CC3(C2)C[C@H](c2n[nH]c(=O)c4ccccc42)C3)c2ccccc21 (single isomer, unassigned) [Example 14]",2.01 to 5 nM
2,"O=C(N[C@H]1CC2(C1)C[C@H](c1n[nH]c(=O)c3ccccc31)C2)c1ccn(CC(F)(F)F)n1 (single isomer, unassigned) [Example 15]",5.1 to 15 nM
3,"O=C(N[C@H]1CC2(C1)C[C@H](c1n[nH]c(=O)c3ccccc31)C2)c1ccn(CC(F)F)n1 (single isomer, unassigned) [Example 16]",2.01 to 5 nM
4,"Cn1nc(C(=O)N[C@H]2CC3(C2)C[C@H](c2n[nH]c(=O)c4ccccc42)C3)c2ccccc21 (single isomer, unassigned) [Example 17]",100 to 2100 nM
5,"O=C(N[C@H]1CC2(C1)C[C@H](c1n[nH]c(=O)c3ccccc31)C2)c1ccn(CC(F)(F)F)n1 (single isomer, unassigned) [Example 18]",100 to 2100 nM
6,"CC(C)(O)Cn1nc(C(=O)NC2CC3(C2)CC(c2n[nH]c(=O)c4ccccc24)C3)c2ccccc21 (single isomer, unassigned) [Example 21]",2.01 to 5 nM
7,"O=C(NC1CC2(C1)CC(c1n[nH]c(=O)c3ccccc13)C2)C1Cc2ccccc2C1 (stereo not shown) [Example 1, N-[6-(4-oxo-3,4-dihydrophthalazin-1-yl)spiro[3.3]heptan-2-yl]-2,3-dihydro-1H-indene-2-carboxamide]",100 to 2100 nM
8,"CN(C)c1ccc(C(=O)NC2CC3(C2)CC(c2n[nH]c(=O)c4ccccc24)C3)cc1 (stereo not shown) [Example 2, 4-(dimethylamino)-N-[6-(4-oxo-3,4-dihydrophthalazin-1-yl)spiro[3.3]heptan-2-yl]benzamide]",100 to 2100 nM
9,"O=C(Cc1cccc2ccccc12)NC1CC2(C1)CC(c1n[nH]c(=O)c3ccccc13)C2 (stereo not shown) [Example 3, 2-(naphthalen-1-yl)-N-[6-(4-oxo-3,4-dihydrophthalazin-1-yl)spiro[3.3]heptan-2-yl]acetamide]",100 to 2100 nM
10,"O=C(Cc1ccc2ccccc2c1)NC1CC2(C1)CC(c1n[nH]c(=O)c3ccccc13)C2 (stereo not shown) [Example 4, 2-(naphthalen-2-yl)-N-[6-(4-oxo-3,4-dihydrophthalazin-1-yl)spiro[3.3]heptan-2-yl]acetamide]",100 to 2100 nM
11,"Cn1nc(C(=O)NC2CC3(C2)CC(c2n[nH]c(=O)c4ccccc24)C3)c2ccccc21 (stereo not shown) [Example 5, 1-methyl-N-[6-(4-oxo-3,4-dihydrophthalazin-1-yl)spiro[3.3]heptan-2-yl]-1H-indazole-3-carboxamide]",2.01 to 5 nM
12,"O=C(CCc1ccccc1)NC1CC2(C1)CC(c1n[nH]c(=O)c3ccccc13)C2 (stereo not shown) [Example 6, N-[6-(4-oxo-3,4-dihydrophthalazin-1-yl)spiro[3.3]heptan-2-yl]-3-phenylpropanamide]",100 to 2100 nM
13,"O=C(NC1CC2(C1)CC(c1n[nH]c(=O)c3ccccc13)C2)c1ccn(CC(F)(F)F)n1 (stereo not shown) [Example 7, N-[6-(4-oxo-3,4-dihydrophthalazin-1-yl)spiro[3.3]heptan-2-yl]-1-(2,2,2-trifluoroethyl)-1H-pyrazole-3-carboxamide]",5.1 to 15 nM
14,"Cc1nn(-c2ccccc2)cc1C(=O)NC1CC2(C1)CC(c1n[nH]c(=O)c3ccccc13)C2 (stereo not shown) [Example 8, 3-methyl-N-[6-(4-oxo-3,4-dihydrophthalazin-1-yl)spiro[3.3]heptan-2-yl]-1-phenyl-1H-pyrazole-4-carboxamide]",15.1 to 100 nM
15,"CC(C)(C)n1cc(C(=O)NC2CC3(C2)CC(c2n[nH]c(=O)c4ccccc24)C3)cn1 (stereo not shown) [Example 9, 1-tert-butyl-N-[6-(4-oxo-3,4-dihydrophthalazin-1-yl)spiro[3.3]heptan-2-yl]-1H-pyrazole-4-carboxamide]",15.1 to 100 nM
16,"O=C(NC1CC2(C1)CC(c1n[nH]c(=O)c3ccccc13)C2)c1ccn(-c2ccccc2)n1 (stereo not shown) [Example 10, N-[6-(4-oxo-3,4-dihydrophthalazin-1-yl)spiro[3.3]heptan-2-yl]-1-phenyl-1H-pyrazole-3-carboxamide]",100 to 2100 nM
17,"CC(C)(O)Cn1nc(C(=O)NC2CC3(C2)CC(c2n[nH]c(=O)c4ccccc24)C3)c2ccccc21 (stereo not shown) [Example 11, 1-(2-hydroxy-2-methylpropyl)-N-[6-(4-oxo-3,4-dihydrophthalazin-1-yl)spiro[3.3]heptan-2-yl]-1H-indazole-3-carboxamide]",15.1 to 100 nM

row,SMILES,IC50
1,"O=C(NC1CC2(C1)CC(c1n[nH]c(=O)c3ccccc13)C2)c1cnn(-c2ccccc2)c1 (stereo not shown) [Example 12, N-[6-(4-oxo-3,4-dihydrophthalazin-1-yl)spiro[3.3]heptan-2-yl]-1-phenyl-1H-pyrazole-4-carboxamide]",15.1 to 100 nM
2,"Cc1c(C(=O)NC2CC3(C2)CC(c2n[nH]c(=O)c4ccccc24)C3)cnn1-c1ccccc1 (stereo not shown) [Example 13, 5-methyl-N-[6-(4-oxo-3,4-dihydrophthalazin-1-yl)spiro[3.3]heptan-2-yl]-1-phenyl-1H-pyrazole-4-carboxamide]",2.01 to 5 nM
3,"O=C(N[C@H]1CC2(C1)C[C@H](c1n[nH]c(=O)c3ccccc31)C2)c1ccn(CC(F)F)n1 (stereo partly drawn) [Example 19, 1-(2,2-Difluoroethyl)-N-[(aR)-6-(4-oxo-3,4-dihydrophthalazin-1-yl)spiro[3.3]heptan-2-yl]-1H-pyrazole-3-carboxamide]",100 to 2100 nM
4,"Cc1c(C(=O)NC2CC3(C2)CC(c2n[nH]c(=O)c4ccccc24)C3)cnn1-c1ccccc1 [Example 20, 5-methyl-N-[(aR)-6-(4-oxo-3,4-dihydrophthalazin-1-yl)spiro[3.3]heptan-2-yl]-1-phenyl-1H-pyrazole-4-carboxamide]",0.2 to 2 nM
5,"O=C(NC1CC2(C1)CC(c1n[nH]c(=O)c3ccccc13)C2)c1ccn(CCC(F)(F)F)n1 [Example 22, N-[(aR)-6-(4-oxo-3,4-dihydrophthalazin-1-yl)spiro[3.3]heptan-2-yl]-1-(3,3,3-trifluoropropyl)-1H-pyrazole-3-carboxamide]",5.1 to 15 nM
6,"O=C(NC1CC2(C1)CC(c1n[nH]c(=O)c3ccccc13)C2)c1ccn(CC2CC2)n1 [Example 23, 1-(cyclopropylmethyl)-N-[(aR)-6-(4-oxo-3,4-dihydrophthalazin-1-yl)spiro[3.3]heptan-2-yl]-1H-pyrazole-3-carboxamide]",5.1 to 15 nM
7,"Cn1nc(C2CC2)cc1C(=O)NC1CC2(C1)CC(c1n[nH]c(=O)c3ccccc13)C2 [Example 24, 3-cyclopropyl-1-methyl-N-[(aR)-6-(4-oxo-3,4-dihydrophthalazin-1-yl)spiro[3.3]heptan-2-yl]-1H-pyrazole-5-carboxamide]",2.01 to 5 nM
8,"Cn1nc(C(F)(F)F)cc1C(=O)NC1CC2(C1)CC(c1n[nH]c(=O)c3ccccc13)C2 [Example 25, 1-methyl-N-[(aR)-6-(4-oxo-3,4-dihydrophthalazin-1-yl)spiro[3.3]heptan-2-yl]-3-(trifluoromethyl)-1H-pyrazole-5-carboxamide]",5.1 to 15 nM
9,"Cn1nc(C(=O)NC2CC3(C2)CC(c2n[nH]c(=O)c4ccccc24)C3)cc1C1CC1 [Example 26, 5-cyclopropyl-1-methyl-N-[(aR)-6-(4-oxo-3,4-dihydrophthalazin-1-yl)spiro[3.3]heptan-2-yl]-1H-pyrazole-3-carboxamide]",2.01 to 5 nM
10,"O=C(NC1CC2(C1)CC(c1n[nH]c(=O)c3ccccc13)C2)c1cnn(C2CC2)c1 [Example 27, 1-cyclopropyl-N-[(aR)-6-(4-oxo-3,4-dihydrophthalazin-1-yl)spiro[3.3]heptan-2-yl]-1H-pyrazole-4-carboxamide]",5.1 to 15 nM
11,"Cn1nc(C(=O)NC2CC3(C2)CC(c2n[nH]c(=O)c4ccccc24)C3)cc1OC(F)F [Example 28, 5-(difluoromethoxy)-1-methyl-N-[(aR)-6-(4-oxo-3,4-dihydrophthalazin-1-yl)spiro[3.3]heptan-2-yl]-1H-pyrazole-3-carboxamide]",15.1 to 100 nM
12,"O=C(NC1CC2(C1)CC(c1n[nH]c(=O)c3ccccc13)C2)c1ccn(C2CC2)n1 [Example 29, 1-cyclopropyl-N-[(aR)-6-(4-oxo-3,4-dihydrophthalazin-1-yl)spiro[3.3]heptan-2-yl]-1H-pyrazole-3-carboxamide]",5.1 to 15 nM
13,"CC(C)(O)Cn1ccc(C(=O)NC2CC3(C2)CC(c2n[nH]c(=O)c4ccccc24)C3)n1 [Example 30, 1-(2-hydroxy-2-methylpropyl)-N-[(aR)-6-(4-oxo-3,4-dihydrophthalazin-1-yl)spiro[3.3]heptan-2-yl]-1H-pyrazole-3-carboxamide]",15.1 to 100 nM
14,"CC(C)(O)Cn1nc(C(=O)NC2CC3(C2)CC(c2n[nH]c(=O)c4ccccc24)C3)c2ccc(F)cc21 [Example 31, 6-fluoro-1-(2-hydroxy-2-methylpropyl)-N-[(aR)-6-(4-oxo-3,4-dihydrophthalazin-1-yl)spiro[3.3]heptan-2-yl]-1H-indazole-3-carboxamide]",2.01 to 5 nM
15,"Cc1nn(CC(F)F)cc1C(=O)NC1CC2(C1)CC(c1n[nH]c(=O)c3ccccc13)C2 [Example 32, 1-(2,2-difluoroethyl)-3-methyl-N-[(aR)-6-(4-oxo-3,4-dihydrophthalazin-1-yl)spiro[3.3]heptan-2-yl]-1H-pyrazole-4-carboxamide]",2.01 to 5 nM
16,"Cc1nc(N2CCCCC2)sc1C(=O)N[C@H]1CC2(C1)C[C@H](c1n[nH]c(=O)c3ccccc31)C2 (stereo partly drawn) [Example 33, 4-Methyl-N-((aR)-6-(4-oxo-3,4-dihydrophthalazin-1-yl)spiro[3.3]heptan-2-yl)-2-(piperidin-1-yl)thiazole-5-carboxamide]",0.2 to 2 nM
17,"Cc1nc(N2CCOCC2)sc1C(=O)NC1CC2(C1)CC(c1n[nH]c(=O)c3ccccc13)C2 [Example 34, 4-methyl-2-(morpholin-4-yl)-N-[(aR)-6-(4-oxo-3,4-dihydrophthalazin-1-yl)spiro[3.3]heptan-2-yl]-1,3-thiazole-5-carboxamide]",15.1 to 100 nM
